Experimental data: patent US20040248918A1, “N-phenyl-2-pyrimidine-amine derivatives and process for the preparation thereof” (IL YANG PHARM. CO., LTD., priority 2003, published 2004)
Read-outs that look alike come from different tables or passages of the source.

Assays:
[1] = test system: breast cancer cell (MCF-7); experiment: Growth inhibition of MCF-7 (MTT); type: cell-based; parameters: IC50 as fraction of that of Imatinib mesylate: unit not given beside the values; conditions: for IC50: Homo sapiens, MCF7
Method: (§1) In the present experiment, the inhibitory activity of the compound of formula (1) was determined against the growth of K562 cancer cell. First, the cells were allowed to stand in RPMI (Roswell Park Memorial Institute)-1640 medium containing 10% (v/v) fetal bovine serum in an incubator of 37° C. and 5% by volume of CO2. The cancer cells (1000 cells) were transferred to a 96-well plate, and the test compound was diluted. The plate was allowed to stand under the above mentioned conditions for 2 days. After this treatment, to the cells was added 0.2% MTT (3-[4,5-dimethylthiazol-2-yl]-2,5-diphenyltetrazolium bromide) solution, and the resulting mixture was allowed to stand under the constant temperature-condition for 4 hours. The supernatant was removed to leave the resulting crystal. DMSO was added to dissolve the crystal, and the absorbance of the solution was measured at 540 nm. IC50 value was calculated using a computer system according to the following formula: […]
(§2) The test was performed according to the same procedure as Experiment 1.

[2] = test system: pancreatic cancer cell of CAPAN-2; experiment: Growth inhibition of CAPAN-2 (MTT); type: cell-based; conditions: for Improved activity versus 5-Fu / Improved activity versus cisplatin: CAPAN-2; for IC50: Homo sapiens, Capan-2, read-out: IC50
[3] = test system: hematologic malignancy cell (HL-60); experiment: Growth inhibition of HL-60 (MTT); type: cell-based; parameters: IC50 as fraction of that of Imatinib mesylate: unit not given beside the values; conditions: for IC50: Homo sapiens
[4] = test system: lymphoma cell (RPMI-6666); experiment: Growth inhibition of RPMI-6666 (MTT); type: cell-based; conditions: for IC50: Homo sapiens
Method: as §1, §2

[5] = test system: U937 cancer cell (monocyte like leukemia cell line); experiment: Growth inhibition of U937 cancer cell (MTT); type: cell-based; conditions: for IC50: Homo sapiens, U-937
Method: as §1
In the present experiment, the inhibitory activity of the compound of formula (1) was determined against the growth of U937 cancer cell. The test was performed according to the same procedure as Experiment 1.

[6] = test system: acute myelogenous leukemia cell (KG-1); experiment: Growth inhibition of KG-1 (MTT); type: cell-based; conditions: for IC50: Homo sapiens
[7] = test system: gastric cancer cell (KATO III); experiment: Growth inhibition of KATO III (MTT); type: cell-based; parameters: IC50 as fraction of that of Imatinib mesylate: unit not given beside the values; conditions: for IC50: Homo sapiens
Method: as §1, §2

[8] = test system: lung cancer cell (A549); experiment: Growth inhibition of A549 (MTT); type: cell-based; parameters: IC50 as fraction of that of Imatinib mesylate: unit not given beside the values; conditions: for IC50: Homo sapiens
Method: as §1, §2

[9] = test system: colon cancer cell of SNU-C1; experiment: Growth inhibition of SNU-C1 (MTT); type: cell-based; conditions: for IC50: Homo sapiens, read-out: IC50
[10] = Comparative pharmacokinetic test in white rats; type: in vivo, white rats (Sprague-Dawley); conditions: rat
Method: On the previous day to the test, white rats (Sprague-Dawley, 250˜280 g, male) were put under anesthesia by pentobarbital sodium (50 mg/kg, I.P.). Then, cannula (polyethylene tube; diameter: 0.58mm) was introduced into the rats via the carotid artery and jugular vein, and drawn out to the back. After the operation, the rats were fasted for 16 hours and used for the test. […] Blood was collected in 0, 0.5, 1, 1.5, 2, 2.5, 3, 3.5, 4, 4.5, 5, 6, 8, 10, 12, and 24 hours from the carotid artery. The samples for HPLC analysis were prepared using the collected blood according to the following procedure and were analyzed under the following conditions.
Blood was collected by an amount of 0.5 ml at each prearranged time and centrifuged at 15000 rpm for 7 minutes to separate […] of plasma. In order to remove proteins, MeOH was added in an amount of […], twice as much as the amount of plasma, and the mixture was shaken for 30 minutes. The mixture was centrifuged again at 15000 rpm for 5 minutes to give protein free supernatant, which was then analyzed by HPLC.
Flow rate: 1.0 ml/min, UV detection at 267 nm
Column: 4.6×150 mm, 5C18-AR-II, COSMOSIL
Eluent: Mixture of ion pair sample (420 ml) and MeOH (580 ml)
Ion pair sample: 7.5 g of 1-octanesulfonic acid was dissolved in 800 ml of water. The resulting mixture was adjusted to pH 2.5 using phosphoric acid and diluted with water to 1000 ml volume.
Here, the pharmacokinetic parameters are Tmax (time to reach the maximum blood concentration), Cmax (maximum blood concentration), AUC (area under the curve of time-blood concentration), and T1/2 (half time in blood), and the AUC was calculated under trapezoid rule (see Tables 6, 7 and FIGS. 1, 2).

[11] = test system: K562 cancer cell (CML cell line); experiment: Growth inhibition of K562 cancer cell (MTT); type: cell-based; conditions: for IC50: K562, 2 days, MTT; for Improved activity versus Imatinib mesylate: K562
Method: In the present experiment, the inhibitory activity of the compound of formula (1) was determined against the growth of K562 cancer cell. First, the cells were allowed to stand in RPMI (Roswell Park Memorial Institute)-1640 medium containing 10% (v/v) fetal bovine serum in an incubator of 37° C. and 5% by volume of CO2. The cancer cells (1000 cells) were transferred to a 96-well plate, and the test compound was diluted. The plate was allowed to stand under the above mentioned conditions for 2 days. […] The supernatant was removed to leave the resulting crystal.

[12] = test system: prostatic cancer cell (DU-145); experiment: Growth inhibition of DU-145 (MTT); type: cell-based; parameters: IC50 as fraction of that of Imatinib mesylate: unit not given beside the values; conditions: for IC50: Homo sapiens
Method: as §1, §2

[13] = test system: hepatoma cell (SNU-182); experiment: Growth inhibition of SNU-182 (MTT); type: cell-based; parameters: IC50 as fraction of that of Imatinib mesylate: unit not given beside the values; conditions: for IC50: Homo sapiens
Method: as §1, §2

[14] = test system: rectal cancer cell of CMT-93; experiment: Growth inhibition of CMT-93 (MTT); type: cell-based; conditions: for IC50: CMT93, read-out: IC50
Method: as §1, §2

[15] = test system: encephalophyma cell of A172; experiment: Growth inhibition of A172 (MTT); type: cell-based; conditions: for IC50: Homo sapiens, A 172, read-out: IC50
Method: as §1, §2

[16] = test system: ovarian cancer cell (SK-OV-03); experiment: Growth inhibition of SK-OV-03 (MTT); type: cell-based; parameters: IC50 as fraction of that of Imatinib mesylate: unit not given beside the values
Method: as §1, §2

[17] = test system: cervical cancer cell of HeLa229; experiment: Growth inhibition of HeLa 229 (MTT); type: cell-based; conditions: for IC50: Homo sapiens, read-out: IC50
[18] = male, Sprague-Dawley, plasma, po, 50 mg/kg, P.O.
[19] = Homo sapiens, K562, 48 h, read-out: IC50
[20] = male, Sprague-Dawley, plasma, iv, 50 mg/kg, I.V.

Row | SMILES | IC50 [1] [µg/mL] | Improved activity versus 5-Fu [2] [times] | Improved activity versus cisplatin [2] | IC50 [2] [µg/mL] | IC50 [3] [µg/mL] | IC50 [4] [µg/mL] | IC50 [5] [µg/mL] | IC50 [6] [µg/mL] | IC50 [7] [µg/mL] | IC50 [8] [µg/mL] | Improved activity versus 5-Fu [9] [times] | Improved activity versus Imatinib mesylate [9] | Improved activity versus cisplatin [9] | IC50 [9] [µg/mL] | IC50 [11, 19] [µg/mL] | IC50 [12] [µg/mL] | IC50 [13] [µg/mL] | IC50 [14] [µg/mL] | IC50 [15] [µg/mL] | IC50 [16] [µg/mL] | further results
1 | CS(=O)(=O)O.Cc1ccc(NC(=O)c2ccc(CNN3CCN(C)CC3)cc2)cc1Nc1nccc(-c2cccnc2)n1 [Example 4, 4-(4-methylpiperazin-1-ylaminomethyl)-N-[4-methyl-3-(4-(pyridin-3-yl)pyrimidin-2-yl)aminophenyl]benzamide methanesulfonate] | > 50 | 17 | 9 times | 56.3 | 27.8 | 33.8 | 0.9 | > 50 | 32.4 | 46.6 | 9 | 3 times | 30 times | 10 | ≤ 0.1 | 41.3 | 48 | 8.39 | 39.3 | > 50 | Improved activity versus Imatinib mesylate [5]: 30 times; Cmax [10, 18]: 3160 ng/mL; Tmax [10, 18]: 2 h; AUC ([10]; male, Sprague-Dawley, plasma, po, 50 mg/kg, P.O., trapezoid rule): 23000 ng·h/mL; AUC relative to Imatinib mesylate ([10]; both per oral 100 mg/kg): about twice; Cmax relative to Imatinib mesylate ([10]; both per oral 100 mg/kg): about twice; IC50 ([11]; methanesulfonate): <0.10 µg/mL; Improved activity versus Imatinib mesylate ([11]; listed as example 4, methanesulfonate): 5 times; Improved activity versus Imatinib mesylate ([11]; methanesulfonate): ≥ 5 times; IC50 [17]: 48.5 µg/mL
2 | CN1CCCN(Cc2ccc(C(=O)Nc3ccc(Nc4nccc(-c5cccnc5)n4)cc3)cc2)CC1.CS(=O)(=O)O [Example 10, 4-(4-methylhomopiperazin-1-ylmethyl)-N-[4-(4-(pyridin-3-yl)pyrimidin-2-yl)aminophenyl]benzamide methanesulfonate] | 6.96 | > 20 | more than 10 times | 45.9 | 4.28 | 2.12 | 7.3 | 3.31 | 3.26 | 3.5 | > 80 | more than 25 times | more than 250 times | 1.2 | 3.85 | 5.51 | 7.94 | 4.04 | 5.5 | 25.5 | IC50 as fraction of that of Imatinib mesylate [1]: 1/7; IC50 as fraction of that of Imatinib mesylate [3]: 1/8; IC50 as fraction of that of Imatinib mesylate [4]: 1/15; IC50 as fraction of that of Imatinib mesylate [6]: 1/10; IC50 as fraction of that of Imatinib mesylate [7]: 1/10; IC50 as fraction of that of Imatinib mesylate [8]: 1/10; AUC [10, 20]: 8920 ng·h/mL; half-life [10, 20]: 1.37 h; IC50 as fraction of that of Imatinib mesylate [12]: 1/2; IC50 as fraction of that of Imatinib mesylate [13]: 1/5; Improved activity versus Imatinib mesylate [14]: > 1.5 times; Improved activity versus 5-Fu [15]: more than 18 times; Improved activity versus Imatinib mesylate [15]: more than 8 times; IC50 as fraction of that of Imatinib mesylate [16]: 1/2; Improved activity versus Imatinib mesylate [17]: more than 8 times; IC50 [17]: 5.5 µg/mL
